Marks after values point to notes of the source that are not given here.
What was measured:
Format in all cases: in vivo
[1] = test system: Polygonum convolvulus; test: greenhouse post-emergence treatment, POLCO; conditions: scale 0-100
Excerpt: (§1) The culture containers used were plastic flowerpots containing loamy sand with approximately 3.0% of humus as the substrate. The seeds of the test plants were sown separately for each species.
(§2) For the post-emergence treatment, the test plants were first grown to a height of 3 to 15 cm, depending on the plant habit, and only then treated with the active ingredients which had been suspended or emulsified in water. For this purpose, the test plants were either sown directly and grown in the same containers, or they were first grown separately as seedlings and transplanted into the test containers a few days prior to treatment.
(§3) Depending on the species, the plants were kept at 10-25° C. or 20-35° C. The test period extended over 2 to 4 weeks. During this time, the plants were tended, and their response to the individual treatments was evaluated.
(§4) Evaluation was carried out using a scale from 0 to 100. 100 means no emergence of the plants, or complete destruction of at least the aerial moieties, and 0 means no damage, or normal course of growth. A good herbicidal activity is given at values of at least 70 and a very good herbicidal activity is given at values of at least 85.
(§5) The plants used in the greenhouse experiments belonged to the following species:
(§6) Following representative compounds of formula I according to Table 9 were used in post-emergence treatments in greenhouse experiments (values labeled with * result from pre-emergence experiments): […]

[2] = test system: Chenopodium album; test: greenhouse post-emergence treatment, CHEAL; conditions: scale 0-100
Excerpt: as §1, §2, §3, §4, §5, §6

[3] = test system: Amaranthus retroflexus; test: greenhouse post-emergence treatment, AMARE; conditions: scale 0-100
Excerpt: as §1, §2, §3, §4, §5, §6

[4] = test system: Amaranthus retroflexus; test: greenhouse pre-emergence treatment, AMARE; conditions: pre-emergence (value labeled *), scale 0-100
Excerpt: as §1
(§7) For the pre-emergence treatment, the active ingredients, which had been suspended or emulsified in water, were applied directly after sowing by means of finely distributing nozzles. The containers were irrigated gently to promote germination and growth and subsequently covered with transparent plastic hoods until the plants had rooted. This cover caused uniform germination of the test plants, unless this has been impaired by the active ingredients.
as §3, §4, §5, §6

[5] = test system: Echinochloa crus-galli; test: greenhouse post-emergence treatment, ECHCG; conditions: scale 0-100
Excerpt: as §1, §2, §3, §4, §5, §6

[6] = test system: Abutilon theophrasti; test: greenhouse post-emergence treatment, ABUTH; conditions: 1000 g/ha, scale 0-100
Excerpt: as §1, §2, §3, §4
(§8) The plants used in the greenhouse experiments belonged to the following species: […]

[7] = test system: Abutilon theophrasti; test: greenhouse pre-emergence treatment, ABUTH; conditions: pre-emergence (value labeled *), scale 0-100
Excerpt: as §1, §7, §3, §4, §5, §6

[8] = test system: Echinochloa crus-galli; test: greenhouse pre-emergence treatment, ECHCG; conditions: pre-emergence (value labeled *), 250 g/ha; scale 0-100
Excerpt: as §1, §7, §3, §4, §8

[9] = test system: Agrostis spica-venti; test: greenhouse pre-emergence treatment, APESV; conditions: pre-emergence (value labeled *), scale 0-100
Excerpt: as §1, §7, §3, §4, §5, §6

[10] = test system: Setaria viridis; test: greenhouse post-emergence treatment, SETVI; conditions: 250 g/ha, scale 0-100
Excerpt: as §1, §2, §3, §4, §8

[11] = test system: Alopecurus agrestis; test: greenhouse post-emergence treatment, ALOMY; conditions: 250 g/ha, scale 0-100
Excerpt: as §1, §2, §3, §4, §8

## CCOc1c(Cl)cc(F)c(C(=O)Nc2nnnn2CC)c1Cl [compound 63]
[1]; 500 g/ha
  [%] damage to weed IX (POLCO): 98%
[2]; 500 g/ha
  [%] damage to weed VI (CHEAL): 100%
[3]; 500 g/ha
  [%] damage to weed III (AMARE): 100; %
[4]; 500 g/ha
  [%] damage to weed III (AMARE): 100* %

## Cc1c(C(=O)Nc2nnnn2C)cc(F)c(S(C)(=O)=O)c1S(C)(=O)=O [compound 66]
[5]; 1000 g/ha
  [%] damage to weed VII (ECHCG): 100%
[3]; 1000 g/ha
  [%] damage to weed III (AMARE): 100; %
[6]
  [%] damage to weed I (ABUTH): 100%
[4]; 1000 g/ha
  [%] damage to weed III (AMARE): 100* %

## CSc1c(F)cc(C(=O)Nc2nnnn2C)c(C)c1SC [compound 67]
[5]; 1000 g/ha
  [%] damage to weed VII (ECHCG): 100%
[6]
  [%] damage to weed I (ABUTH): 100%

## COCCOc1c(Cl)cc(F)c(C(=O)Nc2ncnn2C)c1Cl [compound 69]
[1]; 250 g/ha
  [%] damage to weed IX (POLCO): 98%
[2]; 250 g/ha
  [%] damage to weed VI (CHEAL): 100%
[3]; 250 g/ha
  [%] damage to weed III (AMARE): 98%
[7]; 250 g/ha
  [%] damage to weed I (ABUTH): 100* %

## COCCOc1c(Cl)cc(F)c(C(=O)Nc2nnnn2C)c1Cl [compound 70]
[5]; 250 g/ha
  [%] damage to weed VII (ECHCG): 95%
[2]; 250 g/ha
  [%] damage to weed VI (CHEAL): 100%
[3]; 250 g/ha
  [%] damage to weed III (AMARE): 98%
[7]; 250 g/ha
  [%] damage to weed I (ABUTH): 100* %

## CCn1nnnc1NC(=O)c1c(F)cc(Cl)c(OCCOC)c1Cl [compound 71]
[5]; 250 g/ha
  [%] damage to weed VII (ECHCG): 80%
[2]; 250 g/ha
  [%] damage to weed VI (CHEAL): 100%
[3]; 250 g/ha
  [%] damage to weed III (AMARE): 98%
[7]; 250 g/ha
  [%] damage to weed I (ABUTH): 100* %

## COCCn1nnnc1NC(=O)c1c(F)cc(Cl)c([S+](C)[O-])c1Cl (centres unmarked) [compound 74]
[5]; 110 g/ha
  [%] damage to weed VII (ECHCG): 100%
[2]; 110 g/ha
  [%] damage to weed VI (CHEAL): 100%
[3]; 110 g/ha
  [%] damage to weed III (AMARE): 100%
[7]; 110 g/ha
  [%] damage to weed I (ABUTH): 98* %

## COCCn1nnnc1NC(=O)c1c(F)cc(Cl)c(S(C)(=O)=O)c1Cl [compound 76]
[5]; 250 g/ha
  [%] damage to weed VII (ECHCG): 100; %
[2]; 250 g/ha
  [%] damage to weed VI (CHEAL): 100%
[3]; 250 g/ha
  [%] damage to weed III (AMARE): 100%
[8]
  [%] damage to weed VII (ECHCG): 100* %

## CCS(=O)(=O)c1c(Cl)cc(F)c(C(=O)Nc2nnnn2CCOC)c1Cl [compound 80]
[5]; 125 g/ha
  [%] damage to weed VII (ECHCG): 100%
[2]; 125 g/ha
  [%] damage to weed VI (CHEAL): 100%
[3]; 125 g/ha
  [%] damage to weed III (AMARE): 100%
[7]; 125 g/ha
  [%] damage to weed I (ABUTH): 100* %

## CSc1ccc(Cl)c(C(=O)Nc2ncnn2C)c1Cl [compound 81]
[5]; 250 g/ha
  [%] damage to weed VII (ECHCG): 98%
[9]; 250 g/ha
  [%] damage to weed IV (APESV): 95* %
[2]; 250 g/ha
  [%] damage to weed VI (CHEAL): 100%
[3]; 250 g/ha
  [%] damage to weed III (AMARE): 100%

## COCCOc1ccc(Cl)c(C(=O)Nc2nnnn2C)c1Cl [compound 86]
[5]; 500 g/ha
  [%] damage to weed VII (ECHCG): 98%
[9]; 500 g/ha
  [%] damage to weed IV (APESV): 98* %
[2]; 500 g/ha
  [%] damage to weed VI (CHEAL): 100%
[3]; 500 g/ha
  [%] damage to weed III (AMARE): 100%
[7]; 500 g/ha
  [%] damage to weed I (ABUTH): 65* %

## CSc1c(F)cc(Cl)c(C(=O)Nc2ncnn2C)c1F [compound 94]
[5]; 250 g/ha
  [%] damage to weed VII (ECHCG): 95%
[9]; 250 g/ha
  [%] damage to weed IV (APESV): 90* %
[2]; 250 g/ha
  [%] damage to weed VI (CHEAL): 100%
[3]; 250 g/ha
  [%] damage to weed III (AMARE): 100%

## Cn1nnnc1NC(=O)c1c(F)cc(Cl)c([S+](C)[O-])c1Cl (centres unmarked) [cpd. 6]
[10]
  [%] damage to weed XI (SETVI): 100%
[11]
  [%] damage to weed II (ALOMY): 100%
[2]; 250 g/ha
  [%] damage to weed VI (CHEAL): 100%

Reference: patent US20160108008A1, “Substituted N-(Tetrazol-5-yl)- and N-(Triazol-5-yl)arylcarboxamide Compounds and Their Use as Herbicides” (BASF SE, priority 2013, published 2016)
